# According to patent US11478440B2, “Combination of Elafibranor or derivatives thereof with an anti-NASH, anti-fibrotic or anti-cholestatic agent” (GENFIT, priority 2017, dated 2022):
# Columns and labels:
# [1] = system: TGFβ1-induced hHSC; assay: α-SMA ELISA in TGFβ1-induced human primary hepatic stellate cells; type: cell-based
# Procedure: (§1) The human primary hepatic stellate cells (hHSC) (Innoprot) were cultured in STeCM medium (ScienCell cat #5301) that was supplemented with 2% fetal bovine serum (FBS, ScienCell cat #0010), 1% penicillin/streptomycin (ScienCell cat #0503) and stellate cell growth supplement (SteCGS; ScienCell cat #5352). Cell culture flasks were coated with Poly-L Lysine (Sigma cat #P4707) for a better adherence.
# For these experiments, a checkerboard matrix was generated. ELA and component (ii) stocks were serially diluted in DMSO in 5-points series in a row (ELA) and a 11-points series in a column (component (ii)) of a 96-well plate. Subsequently, the 5×11 combination matrix was generated by 1:1 mixing of all single agent concentrations. The test concentrations for each compound were chosen based on the respective IC50 of each compound as single agent obtained by measuring α-SMA content in the HSC model stimulated with TGF-β1.
# The human primary hepatic stellate cells (hHSC) (Innoprot) were cultured under standard conditions, as described above. The cells were subsequently plated at a density of 2×10^4 cells/well into 96-well plates for the measure of α-SMA by ELISA. The next day, cell-culture medium was removed, and cells were washed with PBS (Invitrogen cat #14190). hHSC were deprived for 24 hours in serum-free and SteCGS-free medium. For the treatments with ELA, component (ii) and the respective ELA/component (ii) combinations, the serum-deprived hHSC were preincubated for 1 hour with the compounds followed by addition of the profibrogenic stimuli TGF-β1 (PeproTech cat #100-21, 1 ng/mL) in serum-free and SteCGS-free medium for an additional 48 hour period.
# The level of α-SMA was measured using a Sandwich ELISA. Briefly, the wells of an ELISA plate were first coated with the capture antibody (mouse monoclonal anti-ACTA2, Abnova) at 4° C. overnight. After 3 washes in PBS+0.2% Tween 20, a blocking solution consisting of PBS+0.2% BSA was added for one hour followed by another washing cycle. The cell lysates were transferred into the wells for binding to the capture antibody for a period of 2 h at room temperature. After the washing procedure, the detection antibody (biotinylated mouse monoclonal anti-ACTA2, Abnova) was added for 2 hours at room temperature followed by 3 washes. For the detection, an HRP-conjugated Streptavidin (R&D Systems cat #DY998) was first applied for 30 min at room temperature. After washing, the HRP substrate TMB (BD, #555214) was added and incubated for 7 min at room temperature in the dark. Upon oxidation, TMB forms a water-soluble blue reaction product that becomes yellow with addition of sulfuric acid (solution stop), enabling accurate measurement of the intensity at 450 nm using a spectrophotometer. The developed color is directly proportional to the amount of α-SMA present in the lysate.
# as §1, with “Cell-culture” for “Cell culture”
# For these experiments, a checkerboard matrix was generated. CVC and Elafibranor stocks were serially diluted in DMSO in a 5-points series in a row (Elafibranor) and a 6-points series in a column (Cenicriviroc) of a 96-well plate. Subsequently, the […] combination matrix was generated by 1:1 mixing of all single agent concentrations. The test concentrations for each compound were chosen based on the respective IC50 of each compound as single agent obtained by measuring α-SMA content in the HSC model stimulated with TGF-β1.
# The human primary hepatic stellate cells (hHSC) (Innoprot) were cultured under standard conditions, as described above. […]
# [2] = system: mice with NASH (CDFF-fed mice); assay: Mouse fibrosing-NASH model (CDFF diet, 8 weeks); type: in vivo, C57Bl/6J mice
# Procedure: The preventive effects of the combinations of elafibranor with selonsertib, GKT-831 or GS-0976 were assessed in mice fed a choline-deficient, […] diet (CDAA) supplemented with 2% cholesterol, 30% milk fat diet and high fructose corn syrup 55 (55% fructose/45% glucose for a final concentration of 42 g/L) in drinking water (Mells et al J Nutr Biochem 2015) (CDFF diet). 5-6 weeks old male C57Bl/6J mice were fed a control (CSAA) diet (n=4), CDFF (n=12), or CDFF supplemented with elafibranor (1 or 3 mg/kg/day), selonsertib (30 mg/kg/day), GKT-831 ([…]) alone or in combination (n=8 per group) for 8 weeks.
# The body weight, the food and water intake were monitored twice per week. On the last day of treatment, plasma samples were obtained from retro-orbital blood sampling and mice were sacrificed after a 6 h-fasting period. The liver was rapidly excised for biochemical and histological analyses. All animal procedures were performed according to standard protocols and in accordance with the standard recommendations for the proper care and use of laboratory animals.
# The liver slices were fixed in a formalin 4% solution. Then, the liver pieces were washed 30 minutes in PBS, and dehydrated in ethanol solutions (successive baths at 70, 80, 95 and 100% ethanol). The liver pieces were incubated in three different baths of Xylene (Honeywell cat #534056), followed by two baths in liquid paraffin (59° C.). Liver pieces were then put into racks that were gently filled with HISTOWAX to completely cover the tissue.
# Liver sections were deparaffinized, rehydrated and incubated for 3 minutes in Mayer's Hematoxylin (Microm, cat #F/C0303). Then, the liver sections were rinsed in water and incubated 1 minute in a Eosin Y 0.5% alcoholic (VWR, cat #1.02439.0500) and Erythrosin 0.5% solution (VWR, cat #1.15936.0010), and rinsed in with ethanol. Sections were then incubated for 2 minutes in Safranin, and were eventually dehydrated and mounted using the CV Mount medium (Leica, cat #046430011).
# (§2) Liver sections were deparaffinized, rehydrated and incubated for 15 minutes in a solution of Fast Green FCF 0.1% (Sigma-Aldrich, cat #F7258) before rinsing in a bath of 0.5% acetic acid (Panreac, cat #131008.1611). Then, the liver sections were rinsed in water and incubated 30 minutes in a solution of 0.1% sirius red (Direct Red 80, Fluka cat #43665) in saturated aqueous picric acid (Sigma-Aldrich cat #P6744). Sections were then dehydrated, and mounted using the CV Mount medium (Leica, cat #14046430011).
# (§3) A technician blinded to the source of each liver specimen performed histological examinations. Virtual slides were generated using the Pannoramic 250 scanner from 3D Histech. For each animal, a score summarizing the main histological lesions of NASH was attributed according to the NASH Clinical Research Network (Kleiner 2005, Brunt 1999). Briefly, steatosis, lobular inflammation and hepatocyte ballooning were scored. The NAFLD Activity Score (NAS) was established for each individual as the unweighted sum of the steatosis (0-3), lobular inflammation (0-3) and the ballooning (0-2) injury grading.
# (§4) Using Quant Center software (3D Histech, including Pattern Quant and Histo Quant modules), collagen-stained areas were quantified. Briefly, Pattern Quant was used to detect the tissue and measure its surface. Then, Histo Quant was used to detect the stained collagen content and measure its surface, based on a color threshold method. The fibrosis area was then expressed as the percentage of the collagen surface to the whole tissue per animal.
# The hepatic collagen content was determined using the appropriate QuickZyme kit (Total collagen assay, cat #QZB-totcol2). The assay is based on the detection of hydroxyproline, which is a non-proteinogenic amino acid mainly found in the triple helix of collagen. […]
# [3] = system: fibrosing NASH-model of rats fed a CDAA+1% cholesterol diet; assay: Chronic CDAA+1% cholesterol rat model: liver histology (picrosirius fibrosis surface, NASH lesions); type: in vivo, Wistar rats; settings: GFT505 3 mg/kg/d, OCA 10 mg/kg/d, alone or combined; 12 weeks in diet
# Procedure: (§5) The preventive effects of Elafibranor alone, OCA alone and the combination of both were assessed in a fibrosing NASH-model of rats fed a CDAA+1% cholesterol diet. 150-175 g male Wistar rats were fed a control (CSAA) diet, CDAA+1% cholesterol diet, or CDAA+1% cholesterol diet supplemented with Elafibranor 1, 3 and 10 mg/kg/day, OCA 10 and 30 mg/kg/day or combined drugs (Elafibranor 1, 3 and 10 mg/kg/day combined to OCA 10 mg/kg/day) for 12 weeks.
# (§6) The body weight and the food intake were monitored twice per week. On the last day of treatment, rats were sacrificed after a 6 h fasting period. The liver was rapidly excised for biochemical and histological studies.
# The liver slices were first fixed for 12 hours in formalin 4% solution. Then, the liver pieces were washed 30 minutes in PBS, and dehydrated in ethanol solutions (successive baths at 70, 80, 95 and 100% ethanol). The liver pieces were incubated in three different baths of Xylene (Sigma-Aldrich cat #534056), followed by two baths in liquid paraffin (56° C.). Liver pieces were then put into racks that were gently filled with HISTOWAX to completely cover the tissue.
# The paraffin blocks containing the tissue pieces were removed from the racks and stored at room temperature. The liver blocks were cut into 3 μm slices.
# Liver sections were deparaffinized, rehydrated and incubated for 3 minutes in Mayer's Hematoxylin (Microm, cat #F/C0303). Then, the liver sections were rinsed in water and incubated 1 minute in Eosin G (VWR, cat #1.09844.1000). Sections were rinsed in water then dehydrated, and mounted using the CV Mount medium (Leica, cat #14046430011).
# as §2
# as §3, with “hepatocytes” for “hepatocyte”, “(NAS score)” for “(NAS)”
# as §4
# [4] = system: fibrosing NASH-model of rats fed a CDAA+1% cholesterol diet; assay: Chronic CDAA+1% cholesterol rat model: hepatic gene expression (qPCR); type: in vivo, Wistar rats; settings: liver; GFT505 3 mg/kg/d, OCA 10 mg/kg/d, alone or combined; 12 weeks
# Procedure: as §5, §6
# Total RNA was isolated from rat livers using RNeasy Mini Kit (Qiagen) following manufacturer's instructions. Total RNA were reverse transcribed into cDNA using M-MLV RT (Moloney Murine Leukemia Virus Reverse Transcriptase) (Invitrogen cat #28025) in 1×RT buffer (Invitrogen), 0.5 mM DTT (Invitrogen), 0.18 mM dNTPs (Promega), 200 ng pdN6 (Amersham) and 30 U of RNase inhibitor (Promega).
# Quantitative PCR was then carried out using the CFX96 TOUCH Real-Time PCR Detection System (Biorad). Briefly, the PCR reactions were performed in 96-WP format in 25 μl of total volume containing 1 μL of reverse transcription reaction, 0.5 μL of reverse and forward primers (10 pmol each), and 12.5 μl of 2×iQ SYBR Green Supermix (BioRad), using the following primer sequences:
# Expression levels were normalized using the expression of RPLP0 gene as a housekeeping gene of reference in samples. For each gene, the standard curves were drawn by selecting the best points (at least three points) in order to have PCR reaction efficiency close to 100% and a correlation coefficient close to 1. Expression levels were determined using the standard curve equation for both the housekeeping gene and the target gene (taking into account the specific PCR efficiency of each target gene).
# [5] = system: fibrosing NASH-model of rats fed a CDAA+1% cholesterol diet; assay: Chronic CDAA+1% cholesterol rat model: hepatic collagen content (hydroxyproline); type: in vivo, Wistar rats; settings: GFT505 3 mg/kg/d, OCA 10 mg/kg/d, alone or combined; 12 weeks in diet
# Procedure: as §5, §6
# The hepatic collagen content was determined using the appropriate QuickZyme kit (Total collagen assay, cat #QZB-totcol2). The assay is based on the detection of hydroxyproline, which is a non-proteinogenic amino acid mainly found in the triple helix of collagen. Thus, hydroxyproline in tissue hydrolysates can be used as a direct measure of the amount of collagen present in the tissue (without discrimination between procollagen, mature collagen and collagen degradation products).
# Complete hydrolysis of tissue samples in 6M HCl at 95° C. is required before dosing the hydroxyproline. The assay results in the generation of a chromogen with a maximum absorbance at 570 nm. Results are expressed as mg of collagen/g of liver.
structure (smiles),measurement,setting,value
"CCCCOCCOc1ccc(-c2ccc3c(c2)/C=C(/C(=O)Nc2ccc([S@@+]([O-])Cc4cncn4CCC)cc2)CCCN3CC(C)C)cc1 [CVC, Cenicriviroc, reference compound]","antifibrotic activity (α-SMA), single agent",[1]; 5 μM of CVC alone,does not show any antifibrotic activity
same,"antifibrotic activity (α-SMA), single agent","[1]; TGFβ1-activated hHSC, dose range",did not show a significant effect at all doses
"COc1ccccc1[C@H](Cn1c(=O)n(C(C)(C)C(=O)O)c(=O)c2c(C)c(-c3ncco3)sc21)OC1CCOCC1 [GS-0976, reference compound]",effect on liver fat and body weight,[2]; GS-0976 30 mg/kg/day alone,mild beneficial effect
"CC[C@H]1[C@@H](O)[C@@H]2[C@H](CC[C@]3(C)[C@@H]([C@H](C)CCC(=O)O)CC[C@@H]23)[C@@]2(C)CC[C@@H](O)C[C@@H]12 [OCA, obeticholic acid, reference compound]","Fibrosis surface, percentage over the untreated CDAA + 1% cholesterol rats",[3],74% ± 45%
same,"CCR5 mRNA level (marker of inflammation), percentage over the untreated CDAA + 1% cholesterol rats",[4],81% ± 28%
same,"TGFβ1 mRNA level, percentage over the untreated CDAA + 1% cholesterol rats",[4],110% ± 23%
same,"TIMP1 mRNA level, percentage over the untreated CDAA + 1% cholesterol rats",[4],110% ± 43%
same,"αSMA mRNA level, percentage over the untreated CDAA + 1% cholesterol rats",[4],109% ± 68%
same,"Hepatic collagen content, percentage over the untreated CDAA + 1% cholesterol rats",[5],67% ± 23%
"CN(C)c1cccc(-c2c3c(=O)n(-c4ccccc4Cl)[nH]c3cc(=O)n2C)c1 [GKT-831, 2-(2-chlorophenyl)-4-[3-(dimethylamino)phenyl]-5-methyl-1H-pyrazolo[4,3-c]pyridine-3,6(2H,5H)-dione, reference compound]",effect on NASH and fibrosis,[2]; GKT-831 60 mg/kg/day alone,no beneficial effect
"Cc1cc(F)c(C(=O)Nc2cccc(-c3nncn3C(C)C)n2)cc1-n1cnc(C2CC2)c1 [Selonsertib, reference compound]","hepatic fibrosis (histology, hepatic collagen content, PIIINP and TIMP-1)","[2]; elafibranor 3 mg/kg/day, selonsertib 30 mg/kg/day, alone or combined","improved hepatic fibrosis in this model, albeit to a minor extent than elafibranor"
